In series [1] the target is T1, SyAcnB (Synechocystis sp. PCC 6803 aconitase B) (Synechocystis sp. PCC 6803, UniProt P74582).
T1 construct: gene acnB; full-length, synthetic gene in pGEX6P-1 (BamHI-XhoI), GST tag (elution with glutathione, no cleavage described), E. coli DH5alpha
T1 sequence (P74582 1-868): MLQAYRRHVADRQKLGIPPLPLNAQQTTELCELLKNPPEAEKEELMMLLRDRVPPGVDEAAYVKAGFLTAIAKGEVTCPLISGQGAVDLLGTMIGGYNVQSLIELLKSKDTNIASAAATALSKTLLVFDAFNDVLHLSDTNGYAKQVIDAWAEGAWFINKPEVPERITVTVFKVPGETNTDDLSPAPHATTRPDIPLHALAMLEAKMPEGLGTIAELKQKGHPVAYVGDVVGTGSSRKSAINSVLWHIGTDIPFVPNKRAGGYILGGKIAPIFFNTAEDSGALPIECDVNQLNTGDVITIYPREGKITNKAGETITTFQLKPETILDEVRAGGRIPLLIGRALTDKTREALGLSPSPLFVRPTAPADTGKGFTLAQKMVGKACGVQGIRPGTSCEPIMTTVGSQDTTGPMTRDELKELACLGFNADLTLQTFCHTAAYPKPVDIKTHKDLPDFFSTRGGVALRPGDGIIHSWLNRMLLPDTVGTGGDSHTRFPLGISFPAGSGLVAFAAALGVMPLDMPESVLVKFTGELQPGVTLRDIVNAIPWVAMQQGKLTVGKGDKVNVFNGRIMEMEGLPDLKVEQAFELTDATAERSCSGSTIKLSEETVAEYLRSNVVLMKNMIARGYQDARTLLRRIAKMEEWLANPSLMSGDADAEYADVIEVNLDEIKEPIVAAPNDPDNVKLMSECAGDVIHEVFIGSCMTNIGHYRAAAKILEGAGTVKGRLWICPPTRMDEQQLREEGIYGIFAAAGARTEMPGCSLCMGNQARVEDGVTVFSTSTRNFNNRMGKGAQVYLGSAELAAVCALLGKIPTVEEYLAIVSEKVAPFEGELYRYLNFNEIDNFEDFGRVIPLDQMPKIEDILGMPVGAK
Kind of series: cis-aconitate formation, A240. Format: biochemical. Particulars: read-out: % residual activity at 5 mM.

Substrate in the series “purified protein”: O=C(O)CC(O)(CC(=O)O)C(=O)O
The series can be described thus: purified protein. Conditions: Tris-HCl pH 7.7, 45 °C; reactivated holo-enzyme.

Substrate in series [2]: O=C(O)CC(C(=O)O)C(O)C(=O)O
Kind of series: cis-aconitate formation, A240. Type of series: biochemical, Synechocystis sp. PCC 6803. Conditions: Tris-HCl pH 8.0, 53 °C; reactivated holo-enzyme; DL-isocitrate used.

For `O=C(O)CCC(=O)C(=O)O` [2-OG], the remaining activity at 5000 µM in series [1] is 72%.

Consider `N[C@@H](CC(=O)O)C(=O)O` [L-aspartate], for which, in series [1], the remaining activity at 5000 µM came to 84%.

Regarding `N[C@@H](CCC(=O)O)C(=O)O` [L-glutamate], the remaining activity at 5000 µM in series [1] came out at 85%.

In the case of `NC(=O)CC[C@H](N)C(=O)O` [L-glutamine], the remaining activity at 5000 µM in series [1] was 81%.

On to `CC(=O)C(=O)O` [pyruvate], for which, in series [1], the remaining activity at 5000 µM amounted to 69%.

B1: SyAcnB (Synechocystis sp. PCC 6803 aconitase B) (Synechocystis sp. PCC 6803 substr. Kazusa) (protein)
chain: MLQAYRRHVADRQKLGIPPLPLNAQQTTELCELLKNPPEAEKEELMMLLRDRVPPGVDEAAYVKAGFLTAIAKGEVTCPLISGQGAVDLLGTMIGGYNVQSLIELLKSKDTNIASAAATALSKTLLVFDAFNDVLHLSDTNGYAKQVIDAWAEGAWFINKPEVPERITVTVFKVPGETNTDDLSPAPHATTRPDIPLHALAMLEAKMPEGLGTIAELKQKGHPVAYVGDVVGTGSSRKSAINSVLWHIGTDIPFVPNKRAGGYILGGKIAPIFFNTAEDSGALPIECDVNQLNTGDVITIYPREGKITNKAGETITTFQLKPETILDEVRAGGRIPLLIGRALTDKTREALGLSPSPLFVRPTAPADTGKGFTLAQKMVGKACGVQGIRPGTSCEPIMTTVGSQDTTGPMTRDELKELACLGFNADLTLQTFCHTAAYPKPVDIKTHKDLPDFFSTRGGVALRPGDGIIHSWLNRMLLPDTVGTGGDSHTRFPLGISFPAGSGLVAFAAALGVMPLDMPESVLVKFTGELQPGVTLRDIVNAIPWVAMQQGKLTVGKGDKVNVFNGRIMEMEGLPDLKVEQAFELTDATAERSCSGSTIKLSEETVAEYLRSNVVLMKNMIARGYQDARTLLRRIAKMEEWLANPSLMSGDADAEYADVIEVNLDEIKEPIVAAPNDPDNVKLMSECAGDVIHEVFIGSCMTNIGHYRAAAKILEGAGTVKGRLWICPPTRMDEQQLREEGIYGIFAAAGARTEMPGCSLCMGNQARVEDGVTVFSTSTRNFNNRMGKGAQVYLGSAELAAVCALLGKIPTVEEYLAIVSEKVAPFEGELYRYLNFNEIDNFEDFGRVIPLDQMPKIEDILGMPVGAK
notes: full-length, synthetic gene in pGEX6P-1 (BamHI-XhoI), GST tag (elution with glutathione, no cleavage described), E. coli DH5alpha
Consider B1, for which, in “purified protein”, the Km (in general, the substrate concentration at which the rate is half of its maximum) was 1130 ± 40 µM; the kcat (in general, the number of substrate molecules converted per active site and unit of time at saturation) was 9.12 ± 0.14 s⁻¹. Also, in series [2], the Michaelis constant (Km) stood at 1540 ± 170 µM and the kcat stood at 16.67 ± 0.34 s⁻¹.

Source of the values: article PMC8385029 (Scientific Reports, 2021).
